Measured values taken from patent US7041785B1, “B1-bradykinin receptor antagonists and use thereof” (Université de Sherbrooke, priority 1996, dated 2006).
Like-named read-outs stand apart in the source and are kept apart here. Non-standard residues stand in square brackets, D forms with d. Residues, ends and D or L forms follow the SMILES beside them. Oic = O=C(O)[C@@H]1C[C@@H]2CCCC[C@@H]2N1; 2Nal = N[C@@H](Cc1ccc2ccccc2c1)C(=O)O; Hyp = O=C(O)[C@@H]1C[C@@H](O)CN1; Tic = O=C(O)[C@@H]1Cc2ccccc2CN1; dTic = O=C(O)[C@H]1Cc2ccccc2CN1; 2Thi = N[C@@H](Cc1cccs1)C(=O)O; Sar = CNCC(=O)O

Assays:
[1] = target: T1, angiotensin-converting enzyme (ACE) from rabbit lungs (Oryctolagus cuniculus, UniProt P12822); test: Metabolic degradation by purified angiotensin-converting enzyme, HPLC analysis; format: in vitro ADME; parameters: purified angiotensin-converting enzyme (ACE) from rabbit lungs; purchased Sigma, St-Louis, Mo; host or cells: purified from rabbit lungs
T1 sequence (P12822 34-1310): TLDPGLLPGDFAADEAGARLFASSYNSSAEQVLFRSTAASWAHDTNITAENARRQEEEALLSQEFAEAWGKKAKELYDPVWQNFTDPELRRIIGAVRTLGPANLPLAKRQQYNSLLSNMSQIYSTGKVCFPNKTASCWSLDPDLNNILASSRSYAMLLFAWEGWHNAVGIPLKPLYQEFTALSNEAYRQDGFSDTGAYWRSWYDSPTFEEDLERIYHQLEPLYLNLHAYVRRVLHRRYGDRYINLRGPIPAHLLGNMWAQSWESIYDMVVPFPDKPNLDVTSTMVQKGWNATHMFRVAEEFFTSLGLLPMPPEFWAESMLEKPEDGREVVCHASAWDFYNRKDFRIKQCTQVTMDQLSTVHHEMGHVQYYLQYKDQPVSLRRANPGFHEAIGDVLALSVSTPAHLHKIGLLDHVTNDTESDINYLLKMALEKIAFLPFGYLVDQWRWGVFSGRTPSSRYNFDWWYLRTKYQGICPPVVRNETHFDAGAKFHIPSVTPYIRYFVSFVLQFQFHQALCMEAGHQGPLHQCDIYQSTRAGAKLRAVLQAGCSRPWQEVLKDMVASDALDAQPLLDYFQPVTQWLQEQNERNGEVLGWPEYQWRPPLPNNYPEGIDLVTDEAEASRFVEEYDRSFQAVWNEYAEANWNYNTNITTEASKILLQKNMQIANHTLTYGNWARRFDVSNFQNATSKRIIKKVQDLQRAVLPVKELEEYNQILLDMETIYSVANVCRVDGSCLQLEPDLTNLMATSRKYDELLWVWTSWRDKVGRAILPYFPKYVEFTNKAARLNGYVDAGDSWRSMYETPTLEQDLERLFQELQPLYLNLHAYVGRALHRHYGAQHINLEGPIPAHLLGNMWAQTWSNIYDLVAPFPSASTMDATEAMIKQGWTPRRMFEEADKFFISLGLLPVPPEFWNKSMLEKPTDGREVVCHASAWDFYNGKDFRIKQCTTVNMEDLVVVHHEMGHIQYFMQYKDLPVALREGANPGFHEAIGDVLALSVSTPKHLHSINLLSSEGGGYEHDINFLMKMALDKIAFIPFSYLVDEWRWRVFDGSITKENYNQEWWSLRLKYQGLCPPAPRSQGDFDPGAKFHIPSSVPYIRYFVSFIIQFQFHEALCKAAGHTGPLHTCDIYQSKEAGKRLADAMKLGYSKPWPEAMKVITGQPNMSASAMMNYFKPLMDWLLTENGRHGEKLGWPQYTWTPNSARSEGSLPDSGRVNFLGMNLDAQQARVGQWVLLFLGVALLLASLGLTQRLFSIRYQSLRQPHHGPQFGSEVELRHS
Protocol: (§1) The metabolic stability of various kinin-related peptides was evaluated by incubating the peptide in the presence of purified angiotensin-converting enzyme (ACE) from rabbit lungs (purchased from Sigma, St-Louis, Mo.) dissolved in phosphate buffered saline (PBS) (50 mmol/L, pH 7.5 containing 300 mmoL/L NaCl); the final concentration of enzyme was 45 μg/mL. The experimental protocol for the measurement of ACE activity has been described elsewhere^15,16. Briefly, 200 μmol/L of peptides (40 μL) were placed in a PBS buffer and incubated for 5 min at 37EC before adding 8.5 μL of ACE (total volume of the reaction medium; 190 μL). Samples were withdrawn at 30 min intervals, immersed in boiling water for 5 min, then cooled on ice and centrifuged (5 min) before proceeding to analysis of peptides by high pressure liquid chromatography (HPLC). Results of ACE metabolism are expressed in percent of kinin degradation following the incubation (30 min) of kinin substrates with the enzyme.
(§2) Pure peptides and metabolic products were analysed by reverse-phas HPLC on a C18 μBondapak column (4.6 mm×25 cm) (Waters) of 10-μm particle size. The peptides and their fragments were eluted at the rate of 2.0 mL/min. with a linear gradient ranging from 5 to 65% of acetonitrile/TFA 0.05%/water over 20 min. at room temperature. The elution positions of these peptides were determined by following the absorbance at 214 nm. For each assay, 50 μL of the reaction medium (treated or not with ACE) were extracted and injected into the column. Concentrations of the peaks products, different from the peaks of the peptide substrate, were estimated using a computer software program (Baseline 810; Waters) that controlled also all the chromatography operations. Isolated metabolites and substrates were collected and identified by Electrospray mass spectrometry (positive mode).

[2] = test system: T2, angiotensin-converting enzyme (ACE); test: as above; format: in vitro ADME, rabbit; conditions: rabbit, isolated enzyme ace, pH 7.5
T2 construct: purified angiotensin-converting enzyme (ACE) from rabbit lungs; purchased Sigma, St-Louis, Mo; host or cells: purified from rabbit lungs
Protocol: as §1, §2

[3] = 30 min incubation of peptide (200 μmol/L) with ACE, 37 C, read-out: ACE (% degradation)

Row | SMILES | Less susceptible to ACE proteolytic degradation, relative to Lys(Leu8)desArgBK [1] | metabolised at 0.5 h [2] | metabolised at 0.5 h [2, 3] | metabolised at 0.5 h, 42.1 μmol/L [2]
1 | CC(C)C[C@H](NC(=O)[C@H]1Cc2ccccc2CN1C(=O)[C@H](CO)NC(=O)[C@H](Cc1ccccc1)NC(=O)CNC(=O)[C@@H]1CCCN1C(=O)[C@@H]1CCCN1C(=O)[C@@H](N)CCCNC(=N)N)C(=O)O [Compound 8, (D-Tic^7, Leu^8)desArg^9BK] (H-RPPGFS[dTic]L-OH; N-terminus and C-terminus assumed) | 2-5 times | 0% | – | –
2 | CNCC(=O)N[C@@H](CCCNC(=N)N)C(=O)N1CCC[C@H]1C(=O)N1CCC[C@H]1C(=O)NCC(=O)N[C@@H](Cc1ccccc1)C(=O)N[C@@H](CO)C(=O)N1Cc2ccccc2C[C@@H]1C(=O)N[C@@H](CC(C)C)C(=O)O [Compound 9, Sar(D-Tic^7, Leu^8)desArg^9BK] (H-[Sar]RPPGFS[dTic]L-OH; N-terminus and C-terminus assumed) | 2-5 times | – | 0% | –
3 | CC(C)C[C@H](NC(=O)[C@H]1Cc2ccccc2CN1C(=O)[C@H](CO)NC(=O)[C@H](Cc1ccccc1)NC(=O)CNC(=O)[C@@H]1CCCN1C(=O)[C@@H]1CCCN1C(=O)[C@H](CCCNC(=N)N)NC(=O)[C@H](N)CCCNC(=N)N)C(=O)O [Compound 12, D-Arg(D-Tic^7, Leu^8)desArg^9BK] (H-[dR]RPPGFS[dTic]L-OH; N-terminus and C-terminus assumed) | 2-5 times | 0% | – | –
4 | CC[C@H](C)[C@H](NC(=O)[C@H]1Cc2ccccc2CN1C(=O)[C@H](CO)NC(=O)[C@H](Cc1ccccc1)NC(=O)CNC(=O)[C@@H]1CCCN1C(=O)[C@@H]1CCCN1C(=O)[C@H](CCCNC(=N)N)NC(=O)[C@H](N)CCCNC(=N)N)C(=O)O [Compound 13, D-Arg(D-Tic^7, Ile^8)desArg^9BK] (H-[dR]RPPGFS[dTic]I-OH; N-terminus and C-terminus assumed) | 2-5 times | 9 ± 1% | – | –
5 | CC[C@H](C)[C@H](NC(=O)[C@@H]1Cc2ccccc2CN1C(=O)[C@H](CO)NC(=O)[C@H](Cc1ccccc1)NC(=O)CNC(=O)[C@@H]1CCCN1C(=O)[C@@H]1CCCN1C(=O)[C@H](CCCNC(=N)N)NC(=O)[C@H](N)CCCNC(=N)N)C(=O)O [Compound 14, D-Arg(L-Tic^7, Ile^8)desArg^9BK] (H-[dR]RPPGFS[Tic]I-OH; N-terminus and C-terminus assumed) | – | 77 ± 3% | – | –
6 | CC(C)C[C@H](NC(=O)[C@H]1Cc2ccccc2CN1C(=O)[C@H](CO)NC(=O)[C@H](Cc1ccccc1)NC(=O)CNC(=O)[C@@H]1C[C@@H](O)CN1C(=O)[C@@H]1CCCN1C(=O)[C@H](CCCNC(=N)N)NC(=O)[C@H](N)CCCNC(=N)N)C(=O)O [Compound 17, D-Arg(Hyp^3, D-Tic^7, Leu^8)desArg^9BK] (H-[dR]RP[Hyp]GFS[dTic]L-OH; N-terminus and C-terminus assumed) | 2-5 times | 0% | – | –
7 | CC[C@H](C)[C@H](NC(=O)[C@H](Cc1ccc2ccccc2c1)NC(=O)[C@H](CO)NC(=O)[C@H](Cc1ccccc1)NC(=O)CNC(=O)[C@@H]1CCCN1C(=O)[C@@H]1CCCN1C(=O)[C@H](CCCNC(=N)N)NC(=O)[C@H](CCCCN)NC(C)=O)C(=O)O [Compound 20, AcLys(L-βNal^7, Ile^8)desArg^9BK] (Ac-KRPPGFS[2Nal]I-OH; C-terminus assumed) | – | – | – | 99 ± 1%
8 | N=C(N)NCCC[C@@H](N)C(=O)N[C@@H](CCCNC(=N)N)C(=O)N1CCC[C@H]1C(=O)N1C[C@H](O)C[C@H]1C(=O)NCC(=O)N[C@@H](Cc1cccs1)C(=O)N[C@@H](CO)C(=O)N1Cc2ccccc2C[C@@H]1C(=O)N1[C@H](C(=O)O)C[C@@H]2CCCC[C@@H]21 [Compound 31, D-Arg(Hyp^3, Thi^5, D-Tic^7, Oic^8)desArg^9BK, reference compound] (H-[dR]RP[Hyp]G[2Thi]S[dTic][Oic]-OH; N-terminus and C-terminus assumed) | – | – | 0% | –
